Test results reported in publication PMC10326281, “Insights into the mechanisms governing P01 scorpion toxin effect against U87 glioblastoma cells oncogenesis” (Frontiers in Pharmacology, 2023).
In brackets after ≈: the same amount, converted by molar mass. Where a SMILES comes first, the peptide text is derived from it. Bridges are numbered along the chain shown (N, C = ends).

Tests used:
[1] = test system: U87 glioblastoma cells; assay: Cell proliferation test (crystal violet), U87; format: cell-based, human
Text: (§1) The ATCC (American Type Culture Collection, Rockville, MD, United States) cancer cell lines U87 (glioblastoma), MDA-MB231 (breast cancer) and LS174 (colon adenocarcinoma) were routinely cultured in DMEM supplemented with 10% fœtal bovine serum (FBS), 1% l-glutamine and 100 IU/mL penicillin/streptomycin. […] Rat SK2 cDNA cloned into pJA5 plasmid was a gift from Dr. Skolnik (university Langone Medical center, New York). Human SK3 cDNA cloned into Pipru vector was a king gift from Pr. Soriani (Université Côte d’Azur, CNRS, Inserm, Nice, France).
(§2) The effect of the P01 peptide on cell proliferation was studied. The human cell lines U87, MDA-MB231 or LS174 (5,000 cells per well) were treated with 2; 5 and 10 μg/mL of P01 peptide. The plates were placed at 37°C for 72 h. Cellular proliferation was quantified at 560 nm by a spectrophotometer (Thermo-Multiskan EX, Shanghai, China) after treatment with 1% glutaraldehyde and staining with 0.1% crystal violet.
(§3) Every 24 h, a series of wells was washed with PBS, the cells were fixed with 1% glutaraldehyde, and preserved in PBS to follow the kinetics of proliferation. After 72 h, the cells were stained with crystal violet 0.1% and quantified by measuring the absorbance at 560 nm using a spectrophotometer (Thermo-Multiskan EX, Shanghai, China).

[2] = test system: LS174 colon adenocarcinoma cells; assay: Cell adhesion assay, LS174; format: cell-based, human; details: data not shown
Text: as §1
(§4) Adhesion assays were performed as previously described by ([Sarray et al., 2007]). Glioblastoma U87 cells in suspension (10^6 cells/mL) were treated with 50 μg/mL of P01 and deposited on wells coated with purified extracellular matrix (ECM): Fg at 50 μg/mL; Fn at 10 μg/mL; Coll-I at 50 μg/mL; laminin (Lam) at 15 μg/mL or poly-L-lysine (PL) at 20 μg/mL for U87. MDA-MB231 and LS174 cells were also used in their adequate ECM: Fg and Coll-I respectively. They were incubated to adhere to the substrate for 2 h or 24 h at 37°C. After washing, attached cells were fixed, stained by 0.1% crystal violet, lysed with 1% SDS and quantified by measuring absorbance at 560 nm. The specific adhesion is obtained by subtracting the absorbance obtained in the absence of adhesion substrate (no specific control). […]

[3] = test system: MDA-MB231 breast cancer cells; assay: Cell adhesion assay, MDA-MB231; format: cell-based, human; details: data not shown
Text: as §1, §4

[4] = test system: LS174 colon adenocarcinoma cells; assay: Cell viability (MTT), LS174; format: cell-based, human; details: 25–200 μg/mL, 24 h, 10,000 cells per well, n = 3
Text: as §1
(§5) The human cell lines U87, MDA-MB231, or LS174 (10,000 cells per well) were treated with P01 peptide at different concentrations (25; 50; 100 and 200 μg/mL). After 24 h, the wells were washed with phosphate-buffered saline (PBS) and then the 3-(4,5-dimethylthiazol-2-yl)-2,5-diphenyltetrazolium bromide (MTT) (0.5 mg/mL) was added to the cells as previously described ([Kouba et al., 2020]). The crystals formed after the reduction of MTT by mitochondrial dehydrogenases were dissolved with dimethylsulfoxyde (DMSO). The quantification of live cells was achieved by measuring absorbance at 560 nm using a spectrophotometer (Thermo-Multiskan EX, Shanghai, China).

[5] = test system: apamin-sensitive receptor (SKCa channels); details: selective blocker of SKCa channels displaced; previously reported, ref Zerrouk et al., 1996; cited from earlier work
Text: Our team has initiated the fractionation of Aa scorpion venom, in order to identify scorpion peptides targeting potassium channels involved in the oncological process. Thus, we succeeded to isolate one peptide well represented in this venom. Based on its N-terminal sequence and its mass fingerprint this peptide corresponded to the P01 toxin, previously described by ([Zerrouk et al., 1996]).

[6] = test system: MDA-MB231 breast cancer cells; assay: Cell proliferation test (crystal violet), MDA-MB231; format: cell-based, human; details: 2–10 μg/mL, 72 h, n = 3
Text: as §1, §2, §3

[7] = test system: LS174 colon adenocarcinoma cells; assay: Cell proliferation test (crystal violet), LS174; format: cell-based, human; details: 2–10 μg/mL, 72 h, n = 3
Text: as §1, §2, §3

[8] = test system: MDA-MB231 breast cancer cells; assay: Cell viability (MTT), MDA-MB231; format: cell-based, human; details: 25–200 μg/mL, 24 h, 10,000 cells per well, n = 3
Text: as §1, §5

[9] = test system: human SK3 channel; assay: Whole-cell patch clamp, human SK3 in HEK293T cells; format: cell-based; details: human SK3 in HEK cells, currents recorded at 0 mV, pCa 6
Text: as §1
HEK293T-hSK3 and HEK293-rSK2 cells were selected using the puromycin and neomycin resistance gene respectively. HEK cells were routinely cultured in DMEM supplemented with 5% FBS and 1% l-glutamine. All cell lines were maintained at 37°C in a humid atmosphere of 5% CO2 in air.
Experiments were performed with cells seeded into 35-mm Petri dishes at 3,000 to 6,000 cells per cm^2. All experiments were performed using the conventional whole-cell recording configuration of the patch-clamp technique ([Girault et al., 2011]). For HEK cells expressing SK2 or SK3 channels, voltages clamp ramp protocols were used with a duration of 2 s, with varying voltages - 100 to +100 mV, with a holding potential of 0 mV. […] Also, at 0 mV, the membrane potential currents will be recorded mainly K^+ currents and not Cl^− currents.

CC[C@H](C)[C@H](NC(=O)[C@@H]1CCCN1C(=O)[C@H](CCC(=O)O)NC(=O)[C@@H]1CSSC[C@@H]2NC(=O)[C@H](Cc3c[nH]cn3)NC(=O)[C@H](CCC(=O)O)NC(=O)[C@@H]3CCCN3C(=O)[C@@H]3CSSC[C@H](NC(=O)[C@H](CCCCN)NC(=O)[C@H](CC(=O)O)NC(=O)[C@H](CC(N)=O)NC(=O)[C@H](CC(=O)O)NC(=O)[C@H](CSSC[C@H](NC(=O)[C@H](CO)NC(=O)[C@@H](N)C(C)C)C(=O)N[C@@H](CCC(=O)O)C(=O)N[C@@H](CC(=O)O)C(=O)N3)NC(=O)[C@H](CCCCN)NC(=O)[C@H](C)NC(=O)[C@H](CCC(N)=O)NC(=O)[C@H](C)NC(=O)[C@H](CCCCN)NC(=O)[C@H](CCC(N)=O)NC(=O)[C@H]([C@@H](C)O)NC(=O)[C@H](CO)NC2=O)C(=O)N[C@@H](C(C)C)C(=O)N1)C(=O)O [P01] (H-VSCEDCPEHCSTQKAQAKCDNDKCVCEPI-OH; disulfide 3-19, 6-24, 10-26 (inferred); N-terminus and C-terminus assumed)
IC50 (viability/proliferation) ([1]; 72 h of incubation): 10 µg/mL (≈ 3.15 µM) | kinetic effect on proliferation ([1]; P01 at 10 μg/mL, time course to 72 h, n = 3): inhibition appeared after 48 h of treatment | effect on adhesion [2]: not affected | effect on adhesion [3]: not affected | cytotoxic effect (cell viability) [4]: did not have a cytotoxic effect | inhibition of 125I-apamin binding [5]: inhibit the binding of ^125I-apamin | effect on cell proliferation [6]: no effect | effect on cell proliferation [7]: no effect | cytotoxic effect (cell viability) [8]: did not have a cytotoxic effect | effect on SK3 current [9]: no effect
